Laboratory results reported in publication PMC10060354, “Discovery of a small molecule ligand of FRS2 that inhibits invasion and tumor growth” (Cellular Oncology, 2022).
“And” between values parts separate entries of the source, which are not always exact repeats. Equal values may be shown once.

Legend:
RT-112 = test: SIA, collagen I invasion; format: cell-based, human
Procedure: (§1) 1000—2500 cells/well in 100 μl were seeded in 96 well Corning® Spheroid microplate (CLS4520, Sigma-Aldrich) or in cell-repellent 96 well microplate (650,790, Greiner Bio-one). SIA and analysis was performed as described before. In brief: After spheroid formation (24 – 72 h after seeding), 70 µl medium was removed and replaced with the collagen mixture (2.5 mg/ml Pure Col Collagen I (Advanced Biomatrix)), DMEM 1x (from 10 × stock, Sigma, D2429) and 0.4% Sodium bicarbonate (Sigma, S8761)), resulting in a final collagen concentration of 1.75 mg/ml. Embedded spheroids were stimulated with bFGF (100 ng/ml if not otherwise stated), HGF (30 ng /ml) or EGF (20 ng/ml) and distance of invaded cells quantified 24 – 48 h after embedding. Compounds and BGJ398 were added in Dimethylsulfoxid (DMSO) and corresponding DMSO concentrations were used in control samples.

HCT116 = test: SIA, collagen I invasion; format: cell-based; conditions: Homo sapiens, HCT-116, 100 ng/ml bFGF
Procedure: as §1

M059K = test: SIA, collagen I invasion; format: cell-based; conditions: Homo sapiens, 100 ng/ml bFGF
Procedure: as §1

[1] = In vivo PK of 7 (30, 100, 200 mg/kg PO), plasma and liver exposure; set-up: species or system ICR mice; conditions: both sexes, ICR, mouse, plasma, 0.5 h after administration, read-out: plasma concentration reached
Procedure: In vivo PK studies were performed by Pharmacology Discovery Services Taiwan (New Taipei City, Taiwan). 7 (30, 100, and 200 mg/kg, PO) was further administered to groups of 2 male and 2 female (23 ± 3 g) satellite ICR mice in PK study; the plasma and liver samples were harvested at 0.5 h after administration. In addition, one additional group was dosed at 30 mg/kg and the plasma samples were harvested at 1 and 2 h(s) after the treatment. The body and liver weights were recorded. The exposure levels (ng/ml or ng/g) of 7 in plasma and liver samples were then determined by Liquid Chromatograph Tandem Mass Spectrometer (LC–MS/MS), and the plasma: liver ratios were calculated.

SKOV3 flank tumors = test: Anti-tumor activity, SKOV3 flank xenograft model; format: in vivo, mice; conditions: 200 mg/kg PO once per day
Procedure: SKOV3 model: SKOV3 cells were cultured in McCoy´s 5A (26,600–023, ThermoFisher) media (10%FCS) until P7. Freshly isolated cells (1 × 10^6) with a viability of 98% were subcutaneously transplanted to left flank of 8-week-old female mice in PBS/Matrigel (1:1). […] Tumor diameters were determined by calliper measurements 2 × weekly, body weight (BW) was measured as parameter for tolerability 2 × weekly. For assessing significance of differences between treatments at the individual timepoints, a two-way ANOVA analysis with Turkey’s multiple comparison test was performed.

pFRS2Y436 = test: IHC of pFRS2Y436 in SKOV3 flank tumor samples; format: in vivo, mice; conditions: SKOV3 model; end of treatment
Procedure: IHC of tumor sections was performed by Sophistolab (Muttenz, Switzerland) on a Lecia BondMax instrument using Refine HRP-Kits (Leica DS9800). All buffer-solutions were purchased from Lecia Microsystems Newcastle, Ltd and used according to the manufacturer’s guidelines. Paraffin-slides were de-waxed, pre-treated and incubated as follows: ER-solution 2 for 10 min at 95 °C, ER-solution 2 for 20 min at 100 °C and ER-solution 2 for 30 min at 100 °C. pFRS2; Rabbit anti-Phospho FRS2 (PhosphoY 436, Abcam Limited; ab193363), dilution 1:150; phospho-p44/42 MAPK (Erk1/2Thr202/Tyr204) Rabbit mAb (Cell Signaling Technology #4370), dilution 1:1600. The IHC images were captured digitally using a Nikon Epifluorescence Eclipse Ti2 equipped with a Nikon DS-Ri2 color and a Nikon DS-Qi2 monochrome camera.

FRS2 = biological target: T1, FRS2 (Homo sapiens, UniProt Q8WU20); test: CETSA by IB, cell lysates; format: binding; conditions: DAOY lysates
T1 construct: we used the cellular thermal shift assay (CETSA [36]) in DAOY cells; endogenous in cells; host or cells: DAOY cells (intact cells, or freeze-thaw lysates)
T1 sequence (Q8WU20 whole entry): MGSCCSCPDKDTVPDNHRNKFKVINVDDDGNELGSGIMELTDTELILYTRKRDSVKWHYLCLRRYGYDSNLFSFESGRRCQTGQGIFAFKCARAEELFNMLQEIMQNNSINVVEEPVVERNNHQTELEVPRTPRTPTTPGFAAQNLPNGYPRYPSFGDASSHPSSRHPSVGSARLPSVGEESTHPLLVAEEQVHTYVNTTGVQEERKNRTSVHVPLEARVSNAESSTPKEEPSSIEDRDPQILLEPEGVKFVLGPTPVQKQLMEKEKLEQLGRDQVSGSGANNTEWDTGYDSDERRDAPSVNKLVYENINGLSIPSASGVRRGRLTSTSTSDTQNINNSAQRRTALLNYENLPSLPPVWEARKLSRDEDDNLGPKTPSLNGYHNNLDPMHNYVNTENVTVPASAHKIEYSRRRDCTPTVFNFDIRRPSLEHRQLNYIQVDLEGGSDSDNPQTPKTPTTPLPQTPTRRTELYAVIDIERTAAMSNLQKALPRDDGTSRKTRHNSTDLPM
Procedure: Four 15 cm dishes with 0.5 × 10^6 DAOY cells per dish were grown in full medium o.n. Medium was then removed, cells washed with PBS, detached using trypsin, collected in regular growth medium, centrifuged (300 g, 25 °C, 5 min), washed with PBS and resuspended in 550 µl ice-cold PBS. Cells were lysed with three freeze–thaw cycles (freeze in liquid N2, thaw in 25 °C heat block, vortex quickly) and lysates were placed in aliquots of 250 µl on ice. Compound or solvent was added to 10 µM final concentration and samples were incubated 20 min at 4 °C under rotation. Ten 20 µl aliquots were dispensed in a pre-cooled PCR plate, which was sealed with aluminum foil and placed on ice until heat treatments. Heat treatment was performed in a gradient PCR machine with the following temperatures 40.5, 43.6, 46.2, 48.8. 51.2, 53.8, 56.4, 58.3, 61.7 and 73.8 °C for three min. Plate with samples was kept at RT for 3 min and then kept on ice until centrifugation for 2 min at 500 × g at RT.
Samples were incubated 1 h at 4 °C, with shaking at 500 rpm. Samples are filtered using a MultiScreenHTS HV-Filterplate (Merck, MSHVN4510). Membrane wells were prewetted with 50 µl PBS and centrifuged at 2000 g, RT, 3 min. The lysates were centrifuged at 2000 g, RT, 3 min and 40 µl of each supernatant was transferred to the filterplate and centrifuged at 500 g at RT for 5 min. […]

O=[N+]([O-])c1c(Cl)cc(O)c2c1C1C=CCC1C(c1ccc(Cl)cc1)N2 (stereo not drawn) [Compound 7]
EC50 (RT-112; Homo sapiens, RT-112): 1060 nM | basal and ligand-induced collagen I invasion (result in words) (RT-112; RT-112 (FGFR3-TACC3 fusion)): reduced both basal and ligand-induced collagen I invasion | EC50 (HCT116): 416 nM | EC50 (M059K): 3280 nM | concentration at 0.5 h [1]: 10000 ng/mL and > 20 µM | mice with less than average control tumor growth during treatment (SKOV3 flank tumors): six out of the seven | tumor growth (result in words) (SKOV3 flank tumors): significant reduction in tumor growth between d55 and d80 | pFRS2 Y436 in tumor tissues by IHC (result in words) (pFRS2Y436): No clear difference in pFRS2 Y436 | ΔTm at 10 µM (FRS2): -4.93 °C
